The subject of data set [1] is anemic decerebrated rigidity. In words: Effect on anemic decerebrated rigidity (rigidity relieving effect, EMG of forelimb M. triceps brachii). The format is in vivo, rat (Wister male rats). Conditions: rat; for inhibition in vivo at 3 mg/kg: iv, 10 min, 3 mg/kg through the femoral vein, 10 minutes after administration, * fumarate, ** oxalate, read-out: Relieving Rate (suppression rate of EMG). How it is done: The experiment was performed using specimen of anemic decerebrated rigidity produced in rats according to the method of Fukuda, H., Ito, T., Hashimoto, S., and Kudo, Y.; Japan, J., Pharmacol., 24, 810 (1974). Wister male rats (body weight: 270 to 350 g) were held on their backs and incised at their cervices under etherization. After the trachea and common carotid arteries were exposed, the trachea was cannulated and the bilateral common carotid arteries and esophagus were then double-[…] cut. Subsequently, its occipital bone was exposed through which a circular hole was bored to double-ligate the centrally extending basilar artery. As each rat started coming out of anesthetization, its front limbs became rigid. Measurement was conducted by recording electromyographic (EMG) response from the muscle of the forelimb (M. triceps brachii) of the rat in the rigid state. The EMG pulses were converted to accumulated values every 10 seconds and recorded as a histogram on a recorder. The effect of each test compound on the rigidity was evaluated in terms of the suppression rate. This rate was calculated first by determining the area (see FIG. 1) of a decreased EMG pulse part on the histrograpm upon passage of 10 minutes after administration of a physiological saline solution of each test compound (3 mg/kg) through the femoral vein and then in accordance with the following equation: Suppression rate (%)=(a/A)×100 wherein a means an EMG pulse area decreased as a result of the administration of the test compound; and A means an EMG pulse area observed when no test compound was administered (control).

Data set [2] can be described thus: Acute toxicity (LD50, up-and-down method). Conditions: in vivo; iv, tail vein, ddN male mouse; * fumarate, ** oxalate. How it is done:
LD50 was determined by a known up-and-down method using ddN male mouse. The test compound was dissolved in a physiological saline solution, and the resulting solution was administered into the mouse through the tail vein.

Data set [3] relates to glutamic acid at neuromuscular junctions of crayfish (opener muscles of the first walking legs). Put plainly: Blocking effects on glutamic acid at neuromuscular junctions of crayfish (suppression of L-glutamic acid-induced depolarization). Conditions: test compound 2×10^-4 M, 5-minute pretreatment; L-glutamic acid 10^-4 M; 200 µM. How it is done: The method of Ishida et al., [(J. Physiol., 298, 301-319 (1980)] and that of Shinozaki et al. [Comp. Biochem. Physiol., 70c, 49-58 (1981)] were followed. The opener muscles of the first walking legs of crayfish were used as experimental materials. The neuromuscular sample was held in a bath in which a physiologicl solution [NaCl (195 mM), CaCl2 (18 mM, KCl (5.4 mM), tris-maleate buffer (pH 7.5, 10 mM), and glucose (11 mM)] for use with the cray fish was perfused at room temperature and at a constant flow rate. A glass micro-electrode filled with a 3M-KCl solution was inserted in a central part of the muscle fiber to intracellularly record the changes in the potential of the muscular cell membrane.
The blocking effect of each test compound on glutamic acid was evaluated in terms of the suppression rate to depolarization which was induced by bath-applying L-glutamic acid (10^-4 M) in a 5-minute pretreatment with a solution of the test compound (2×10^-4 M).

Structures can show the parent of a compound that is named as a salt.

Usually LD50 stands for the dose expected to kill half of the subjects tested.

Turning to `CCN(CC)CCC(NC(=O)c1ccc2ccccc2n1)c1ccccc1` (centres unmarked) [Compound 2, N-(3-diethylamino-1-phenylpropyl)quinaldinamide], the inhibition in vivo at 3 mg/kg in data set [1] came to 24.6%. Moreover, in data set [2], the LD50 was found to be 18.9 mg/kg. On to `O=C(NC(CCN1CCCC1)c1ccccc1)c1ccc2ccccc2n1` (centres unmarked) [Compound 4, N-(1-phenyl-3-pyrrolidinopropyl)quinaldinamide], for which the inhibition in vivo at 3 mg/kg in data set [1] was 19.6%. This compound had a median lethal dose (LD50) in data set [2] of 17.2 mg/kg. With `O=C(NC(CCN1CCCCC1)c1ccccc1)c1ccc2ccccc2n1` (centres unmarked) [Compound 5, N-(1-phenyl-3-piperidinopropyl)quinaldinamide], the inhibition in vivo at 3 mg/kg in data set [1] is 18.8%. In data set [3], the “Glutamic Acid-Blocking Rate (suppression rate to depolarization)” value is 66%. Also, the LD50 in data set [2] turned out to be 24.8 mg/kg.

`O=C(NC(CCN1CCCCCC1)c1ccccc1)c1ccc2ccccc2n1` (centres unmarked) [Compound 6, N-[3-(perhydroazepin-1-yl)-1-phenylpropyl]quinaldinamide]: the inhibition in vivo at 3 mg/kg in data set [1] was 12.2%. Further, in data set [2], the 50% lethal dose (LD50) is 15.2 mg/kg.

With `Cc1ccccc1C(CCN1CCCCC1)NC(=O)c1ccc2ccccc2n1` (centres unmarked) [Compound 7, N-[1-(2-methylphenyl)-3-piperidinopropyl]quinaldinamide], the inhibition in vivo at 3 mg/kg in data set [1] is 11.2%. Besides, the LD50 in data set [2] came to 23.5 mg/kg. The like results for `Cc1cccc(C(CCN2CCCCC2)NC(=O)c2ccc3ccccc3n2)c1` (centres unmarked) [Compound 8, N-[1-(3-methylphenyl)-3-piperidinopropyl]quinaldinamide] were, in that order, 11.7% and 25.4 mg/kg. With `CCN(CC)CCNC(=O)c1ccc2ccccc2n1` [Control Compound 1, N-(2-diethylaminoethyl)quiinaldinamide fumarate, reference compound], the inhibition in vivo at 3 mg/kg in data set [1] stood at 1.2%. Further, in data set [3], the “Glutamic Acid-Blocking Rate (suppression rate to depolarization)” value came out at 30%. Take `Cc1ccc(C(=O)C(C)CN2CCCCC2)cc1` (centres unmarked) [Control Compound 2, 2,4'-dimethyl-3-piperidinopropiophenone hydrochloride, reference compound]: the inhibition in vivo at 3 mg/kg in data set [1] amounted to 4.8%.

On to `CCN(CC)CCNC(=O)c1ccc2ccccc2n1` [N-(2-diethylaminoethyl)quinaldinamide, reference compound], for which the “rigidity relieving effect (in words)” value in data set [1] (in vivo) was “very weak rigidity relieving effect”.

Values taken from patent publication US4764617A, “Quinaldinamide derivatives” (Nippon Chemiphar Co., Ltd., priority 1986, dated 1988).
